Experimental data from patent US8017791B2, “Tri-substituted 2-benzhydryl-5-benzylamino-tetrahydro-pyran-4-ol and 6-benzhydryl-4-benzylamino-tetrahydro-pyran-3-ol analogues, and novel, 3,6-disubstituted pyran derivatives” (Wayne State University, priority 2003, dated 2011).
Where a name gives a salt, the structure may show the parent alone.

Tests used:
DAT [1] = molecular target: T1, DAT (Rattus norvegicus, UniProt P23977); assay: Inhibition of [3H]WIN 35,428 binding to DAT
T1 construct: rat striatum was the source for DAT, and cerebral cortex for SERT and NET; from tissue; P2 synaptosomal fraction for uptake
Method: (§1) Biology. […] Briefly, rat striatum was the source for DAT, and cerebral cortex for SERT and NET. […] Test compounds were dissolved in dimethyl sulfoxide (DMSO) and diluted out in 10% (v/v) DMSO. […] At least five triplicate concentrations of each test compound were studied, spaced evenly around the IC50 value. For DAT uptake assays, uptake of 50 nM [^3H]DA into rat striatal synaptosomes was measured exactly as described by us previously. Briefly, rat striatal P2 membrane fractions were incubated with test compounds for 8 min followed by the additional presence of [^3H]DA for 4 min at 25?. […] Construction of inhibition curves and dissolvement of test compounds were as described above.

DAT [2] = molecular target: T1, DAT; assay: Inhibition of [3H]DA uptake by DAT into rat striatal synaptosomes; type: biochemical; conditions: for IC50: read-out: DAT uptake, IC50 [3H]DA; for [3H]DA uptake/DAT binding: Table 3, ratio of IC50 values
Method: as §1

SERT = molecular target: T2, SERT (Rattus norvegicus, UniProt P31652); assay: SERT uptake inhibition, [3H]5-HT; type: biochemical; conditions: in vitro data, Table 4, SERT and NET
T2 construct: rat striatum was the source for DAT, and cerebral cortex for SERT and NET; from tissue; host or cells: rat cerebral cortex
T2 sequence (P31652 whole entry): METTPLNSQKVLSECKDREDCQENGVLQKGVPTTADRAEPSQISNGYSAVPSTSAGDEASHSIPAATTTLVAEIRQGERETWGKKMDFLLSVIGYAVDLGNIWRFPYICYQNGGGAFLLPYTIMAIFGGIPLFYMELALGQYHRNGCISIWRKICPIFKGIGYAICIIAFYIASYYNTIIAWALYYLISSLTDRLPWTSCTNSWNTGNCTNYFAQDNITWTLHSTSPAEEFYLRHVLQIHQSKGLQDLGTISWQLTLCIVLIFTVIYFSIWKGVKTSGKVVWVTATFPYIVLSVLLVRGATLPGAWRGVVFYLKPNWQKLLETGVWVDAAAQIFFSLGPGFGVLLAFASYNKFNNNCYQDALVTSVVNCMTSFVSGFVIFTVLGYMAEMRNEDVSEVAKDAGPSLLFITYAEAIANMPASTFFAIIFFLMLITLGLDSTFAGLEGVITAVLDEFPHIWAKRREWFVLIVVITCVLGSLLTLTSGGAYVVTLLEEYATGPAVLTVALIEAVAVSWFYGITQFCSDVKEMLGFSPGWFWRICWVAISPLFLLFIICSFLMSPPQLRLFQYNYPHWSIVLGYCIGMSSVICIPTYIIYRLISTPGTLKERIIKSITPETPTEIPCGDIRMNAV

T1 sequence (P23977 whole entry): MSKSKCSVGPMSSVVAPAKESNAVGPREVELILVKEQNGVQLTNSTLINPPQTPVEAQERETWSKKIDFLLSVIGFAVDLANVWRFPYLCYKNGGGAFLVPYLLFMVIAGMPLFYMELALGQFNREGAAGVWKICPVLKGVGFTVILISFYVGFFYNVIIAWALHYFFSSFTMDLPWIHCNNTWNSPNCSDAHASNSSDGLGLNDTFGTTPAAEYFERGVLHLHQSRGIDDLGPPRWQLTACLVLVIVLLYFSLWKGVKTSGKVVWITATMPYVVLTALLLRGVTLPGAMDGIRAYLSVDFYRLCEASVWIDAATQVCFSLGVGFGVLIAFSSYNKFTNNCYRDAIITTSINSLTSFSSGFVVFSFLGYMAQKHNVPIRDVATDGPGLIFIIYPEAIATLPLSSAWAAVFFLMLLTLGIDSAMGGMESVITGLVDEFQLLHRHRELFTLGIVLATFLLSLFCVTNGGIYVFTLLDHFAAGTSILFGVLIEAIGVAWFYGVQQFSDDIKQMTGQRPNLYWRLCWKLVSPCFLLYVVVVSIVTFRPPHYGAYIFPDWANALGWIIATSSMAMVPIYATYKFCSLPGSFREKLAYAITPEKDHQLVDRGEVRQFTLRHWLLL

| SMILES | melting point [°C] | other results |
| --- | --- | --- |
| COc1ccc(CN[C@H]2CO[C@@H](C(c3ccccc3)c3ccccc3)C[C@@H]2O)cc1 (as salt: oxalate) [(+)-29a, (2R,4S,5S)-2-benzhydryl-5-(4-methoxy-benzylamino)-tetrahydro-pyran-4-ol] | 230 to 232 | – |
| O[C@H]1C[C@H](C(c2ccccc2)c2ccccc2)OC[C@@H]1NCc1ccc(F)cc1 (as salt: oxalate) [(+)-29b, (2R,4S,5S)-2-benzhydryl-5-(4-fluoro-benzylamino)-tetrahydro-pyran-4-ol] | 223 to 225 | – |
| O[C@H]1C[C@H](C(c2ccccc2)c2ccccc2)OC[C@@H]1NCCc1ccc(F)cc1 (as salt: oxalate) [(+)-29c, (2R,4S,5S)-2-benzhydryl-5-[2-(4-fluoro-phenyl)-ethylamino]-tetrahydropyran-4-ol] | 203 to 205 | – |
| O[C@H]1C[C@H](C(c2ccccc2)c2ccccc2)OC[C@@H]1NCc1ccccc1 (as salt: oxalate) [(+)-29d, (2R,4S,5S)-2-benzhydryl-5-benzylamino-tetrahydro-pyran-4-ol] | 249 to 251 | – |
| Oc1ccc(CN[C@@H]2CC[C@H](C(c3ccccc3)c3ccccc3)OC2)cc1 (as salt: oxalate) [(+)-37a, cis-(3R,6R)-(6-benzhydryl-tetrahydropyran-3-yl)-(4-hydroxy-benzyl)-amine] | 136 to 138 | – |
| COc1ccc(CN[C@@H]2CO[C@H](C(c3ccccc3)c3ccccc3)C[C@H]2O)cc1 (as salt: oxalate) [(−)-29a, (2S,4R,5R)-2-benzhydryl-5-(4-methoxy-benzylamino)-tetrahydropyran-4-ol] | 230 to 232 | – |
| O[C@@H]1C[C@@H](C(c2ccccc2)c2ccccc2)OC[C@H]1NCc1ccc(F)cc1 (as salt: oxalate) [(−)-29b, (2S,4R,5R)-2-benzhydryl-5-(4-fluoro-benzylamino)-tetrahydro-pyran-4-ol] | 222 to 223 | – |
| O[C@@H]1C[C@@H](C(c2ccccc2)c2ccccc2)OC[C@H]1NCCc1ccc(F)cc1 (as salt: oxalate) [(−)-29c, (2S,4R,5R)-2-benzhydryl-5-[2-(4-fluoro-phenyl)-ethylamino]-tetrahydropyran-4-ol] | 205 to 207 | – |
| O[C@@H]1C[C@@H](C(c2ccccc2)c2ccccc2)OC[C@H]1NCc1ccccc1 (as salt: oxalate) [(−)-29d, (2S,4R,5R)-2-benzhydryl-5-benzylamino-tetrahydro-pyran 4-ol] | 250 to 252 | – |
| COc1ccc(CN[C@@H]2CO[C@H](C(c3ccccc3)c3ccccc3)C[C@H]2O)c(OC)c1 (as salt: oxalate) [(−)-29e, (2S,4R,5R)-2-benzhydryl-5-(2,4-dimethoxy-benzylamino)-tetrahydropyran-4-ol] | 208 to 210 | – |
| COc1cc(CN[C@@H]2CO[C@H](C(c3ccccc3)c3ccccc3)C[C@H]2O)cc(OC)c1 (as salt: oxalate) [(−)-29f, (2S,4R,5R)-2-benzhydryl-5-(3,5-dimethoxy-benzylamino)-tetrahydropyran-4-ol] | 245 to 247 | – |
| COc1ccc(CN[C@@H]2C[C@@H](C(c3ccccc3)c3ccccc3)OC[C@@H]2O)cc1 (as salt: oxalate) [(−)-29g, (3R,4R,6S)-6-benzhydryl-4-(4-methoxy-benzylamino)-tetrahydro-pyran-3-ol] | 234 to 235 | – |
| Oc1ccc(CN[C@H]2CC[C@@H](C(c3ccccc3)c3ccccc3)OC2)cc1 (as salt: oxalate) [(−)-37a, cis-(3S,6S)-(6-benzhydryl-tetrahydropyran-3-yl)-(4-hydroxy-benzyl)-amine] | 136 to 138 | – |
| c1ccc(C(c2ccccc2)C2CCC(NCc3c[nH]c4ccccc34)CO2)cc1 (stereo not drawn) (as salt: oxalate) [Compound 16f, Cis-(6-benzhydryl-tetrahydropyran-3-yl)-(3-indole-methyl)-amine] | 177 to 179 | – |
| c1ccc(C(c2ccccc2)C2CCC(NCc3cc4ccccc4[nH]3)CO2)cc1 (stereo not drawn) (as salt: oxalate) [Compound 16g, Cis-(6-benzhydryl-tetrahydropyran-3-yl)-(2-indole-methyl)-amine] | 215 to 216 | – |
| N[C@H]1CC[C@@H](C(c2ccccc2)c2ccccc2)OC1 (relative stereo) (as salt: HCl) [Compound 15, Cis-(6-benzhydryl-tetrahydropyran-3-yl)-amine] | 260 to 261 | – |

| SMILES | melting point [°C] | other results |
| --- | --- | --- |
| Fc1ccc(CN[C@H]2CCO[C@@H](C(c3ccccc3)c3ccccc3)C2)cc1 (relative stereo) (as salt: oxalate) [Compound 7a, cis-(2-benzhydryl-tetrahydropyran 4-yl)-(4-fluorobenzyl)-amine] | 177 to 181 | – |
| Fc1ccc(CN[C@@H]2CCO[C@@H](C(c3ccccc3)c3ccccc3)C2)cc1 (relative stereo) (as salt: oxalate) [Compound 7b, trans-(2-benzhydryl-tetrahydropyran-4-yl)-(4-fluoro-benzyl)-amine] | 185 to 187 | – |
| Fc1ccc(CN[C@H]2CC[C@@H](C(c3ccccc3)c3ccccc3)OC2)cc1 (relative stereo) (as salt: oxalate) [Compound 16b, Cis-(6-benzhydryl-tetrahydropyran-3-yl)-(4-fluoro-benzyl)-amine] | 229 to 230 | – |
| N#Cc1ccc(CN[C@H]2CC[C@@H](C(c3ccccc3)c3ccccc3)OC2)cc1 (relative stereo) (as salt: oxalate) [Compound 16c, Cis-(6-benzhydryl-tetrahydropyran-3-yl)-(4-cyano-benzyl)-amine] | 241 to 242 | – |
| O=[N+]([O-])c1ccc(CN[C@H]2CC[C@@H](C(c3ccccc3)c3ccccc3)OC2)cc1 (relative stereo) (as salt: oxalate) [Compound 16d, Cis-(6-benzhydryl-tetrahydropyran-3-yl)-(4-nitro-benzyl)-amine] | 236 to 238 | – |
| COc1ccc(CN[C@H]2CC[C@@H](C(c3ccccc3)c3ccccc3)OC2)cc1 (relative stereo) (as salt: oxalate) [Compound 16e, Cis-(6-benzhydryl-tetrahydropyran-3-yl)-(4-methoxy-benzyl)-amine] | 215 to 217 | – |
| Clc1ccc(CN[C@H]2CC[C@@H](C(c3ccccc3)c3ccccc3)OC2)cc1Cl (relative stereo) (as salt: oxalate) [Compound 16i, Cis-(6-benzhydryl-tetrahydropyran-3-yl)-(3,4-dichloro-benzyl)-amine] | 251 to 252 | – |
| Fc1ccc(CN[C@H]2CC[C@@H](C(c3ccccc3)c3ccccc3)OC2)cc1F (relative stereo) (as salt: oxalate) [Compound 16j, Cis-(6-benzhydryl-tetrahydropyran-3-yl)-(3,4-difluoro-benzyl)-amine] | 234 to 235 | – |
| c1ccc(CN[C@H]2CC[C@@H](C(c3ccccc3)c3ccccc3)OC2)cc1 (relative stereo) (as salt: oxalate) [Compound 16k, Cis-(6-benzhydryl-tetrahydropyran-3-yl)-benzyl-amine] | 208 to 210 | – |
| Brc1ccc(CN[C@H]2CC[C@@H](C(c3ccccc3)c3ccccc3)OC2)cc1 (relative stereo) (as salt: oxalate) [Compound 16l, Cis-(6-benzhydryl-tetrahydropyran-3-yl)-(4-bromo-benzyl)-amine] | 250 to 252 | – |
| Ic1ccc(CN[C@H]2CC[C@@H](C(c3ccccc3)c3ccccc3)OC2)cc1 (relative stereo) (as salt: oxalate) [Compound 16m, Cis-(6-benzhydryl-tetrahydropyran-3-yl)-(4-iodo-benzyl)-amine] | 243 to 244 | – |
| Fc1ccc(CCN[C@H]2CC[C@@H](C(c3ccccc3)c3ccccc3)OC2)cc1 (relative stereo) (as salt: oxalate) [Compound 16p, Cis-(6-benzhydryl-tetrahydropyran-3-yl)-[2-(4-fluoro-phenyl)-ethyl]-amine] | 240 to 242 | – |
| N[C@H]1CC[C@@H](C(c2ccccc2)c2ccccc2)OC1 (relative stereo) [Compound 15, Cis-(6-benzhydryl-tetrahydropyran-3-yl)-amine] | – | activity at DAT, in words (DAT [1]): little or no activity at the DAT; IC50 (DAT [1]; Table 2, average ± SEM of three to eight experiments, read-out: DAT binding, IC50, [3H]Win 35,428): 777 ± 41 nM; IC50 (DAT [2]; Table 2, average ± SEM): 251 ± 31 nM; [3H]DA uptake/DAT binding (DAT [2]): 0.32 |
| COc1ccc(CN[C@H]2CC[C@@H](C(c3ccccc3)c3ccccc3)OC2)cc1 (relative stereo) [Compound 16e, Cis-(6-benzhydryl-tetrahydropyran-3-yl)-(4-methoxy-benzyl)-amine] | – | IC50 (DAT [1]; read-out: IC50 at the DAT): 84 nM; IC50 (DAT [2]; Table 2, average ± SEM): 59.5 ± 11.6 nM; [3H]DA uptake/DAT binding (DAT [2]): 0.71 |
| O[C@H]1C[C@H](C(c2ccccc2)c2ccccc2)OC[C@@H]1NCc1ccc2[nH]ccc2c1 [(+)-32b, (2R,4S,5S)-2-benzhydryl-5-[(1H-indol-5-ylmethyl)-amino]-tetrahydropyran-4-ol] | – | IC50 (DAT [1]; Table 4, rat brain, read-out: DAT binding, IC50, [3H]Win 35,428): 494 ± 96 nM; IC50 (DAT [2]; Table 4, rat brain): 247 ± 21 nM |
| COc1ccc(CN[C@@H]2CO[C@H](C(c3ccccc3)c3ccccc3)C[C@H]2O)cc1 [(−)-29a, (2S,4R,5R)-2-benzhydryl-5-(4-methoxy-benzylamino)-tetrahydropyran-4-ol] | – | blockade of both SERT and NET (SNRI profile), in words (SERT): potent blockers for both SERT and NET; blockade of both SERT and NET (SNRI profile), in words (SERT; listed as (−)29a): dual transport blockers |
